Test results from publication PMC8704432, “Isolation, Structure Determination of Sesquiterpenes from Neurolaena lobata and Their Antiproliferative, Cell Cycle Arrest-Inducing and Anti-Invasive Properties against Human Cervical Tumor Cells” (Pharmaceutics, 2021).
Read-outs that look alike come from different tables or passages of the source.

How the values were obtained:
[1] = tested on: C33A (HPV negative) human cervical cell line; experiment: Antiproliferative MTT assay, C33A; type: cell-based; details: for inhibition at 10 µM / inhibition at 30 µM: read-out: Growth Inhibition Values (%) ± SEM
Description: (§1) Antiproliferative effect of the isolated compounds were determined in vitro using SiHa (HPV 16+), HeLa (HPV 18+), C33A (HPV negative) human cervical cell lines, NIH-3T3 mouse embryonic and MRC-5 human fibroblast cells by means of MTT ([3-(4,5-dimethylthiazol-2-yl)-2,5-diphenyltetrazolium bromide]) assay. Briefly, a limited number of human cancer cells (5000/well for SiHa and HeLa cells, 10,000/well in case of C33A cells) were seeded onto a 96-well microplate and became attached to the bottom of the well overnight. On the second day of the procedure, the test substances were added in two concentrations (10.0 and 30.0 µM) in order to obtain preliminary data and then the compounds were applied in serial dilution (applied final concentrations were: 0.1, 0.3, 1.0, 3.0, 10.0, 30.0 µM). Further details of the experiment were described in ref. [30]. All in vitro experiments were carried out on two 96-well dishes with at least five parallel wells [31].

[2] = tested on: SiHa (HPV 16+) human cervical cell line; experiment: Antiproliferative MTT assay, SiHa; type: cell-based; details: for IC50: read-out: Calculated IC50 Values (μM) [95% CI]; for inhibition at 10 µM / inhibition at 30 µM: read-out: Growth Inhibition Values (%) ± SEM
Description: as §1

[3] = tested on: NIH/3T3 (mouse embryonic fibroblast); experiment: Antiproliferative MTT assay, NIH/3T3; type: cell-based
Description: as §1

MRC-5 (human fibroblast) = experiment: Antiproliferative MTT assay, MRC-5; type: cell-based
Description: as §1

[4] = tested on: HeLa (HPV 18+) human cervical cell line; experiment: Antiproliferative MTT assay, HeLa; type: cell-based; details: for IC50: read-out: Calculated IC50 Values (μM) [95% CI]; for inhibition at 10 µM / inhibition at 30 µM: read-out: Growth Inhibition Values (%) ± SEM
Description: as §1

[5] = tested on: COLO 320 human colorectal cancer cells; design: method as in PMID 8657743; details: COLO 320 cells; read-out: IC50 (cytotoxicity); cited from earlier work
[6] = tested on: GLC4 human small cell lung carcinoma; design: method as in PMID 8657743; details: GLC4 cells; read-out: IC50 (cytotoxicity); cited from earlier work
[7] = NIH/3T3, MTT, read-out: Calculated IC50 Values (μM) [95% CI]
[8] = Homo sapiens, C-33-A, read-out: Calculated IC50 Values (μM) [95% CI], C33A, MTT
[9] = Mus musculus, NIH3T3, NIH/3T3, MTT, read-out: Calculated IC50 Values (μM) [95% CI]
[10] = Mus musculus, NIH3T3, NIH/3T3, 10 μM, MTT, read-out: Growth Inhibition Values (%) ± SEM
[11] = Mus musculus, NIH3T3, NIH/3T3, 30 μM, MTT, read-out: Growth Inhibition Values (%) ± SEM
[12] = Homo sapiens, MRC5, MRC-5, MTT, read-out: Calculated IC50 Values (μM) [95% CI]
[13] = Homo sapiens, MRC5, MRC-5, 10 μM, MTT, read-out: Growth Inhibition Values (%) ± SEM
[14] = Homo sapiens, MRC5, MRC-5, 30 μM, MTT, read-out: Growth Inhibition Values (%) ± SEM
[15] = Mus musculus, NIH3T3, read-out: Growth Inhibition Values (%) ± SEM
[16] = Homo sapiens, MRC5, read-out: Growth Inhibition Values (%) ± SEM

SMILES	IC50 [1, 8] [µM]	inhibition at 10 µM ([1]; Homo sapiens, C-33-A) [%]	inhibition at 30 µM ([1]; Homo sapiens, C-33-A) [%]	inhibition at 10 µM ([2]; Homo sapiens, 10 μM) [%]	inhibition at 30 µM ([2]; Homo sapiens, 30 μM) [%]	IC50 ([2]; Homo sapiens) [µM]	inhibition at 10 µM ([4]; Homo sapiens, 10 μM) [%]	inhibition at 30 µM ([4]; Homo sapiens, 30 μM) [%]	IC50 ([4]; Homo sapiens) [µM]	further results
N.N.[Cl][Pt][Cl] [Cispl., cisplatin, reference compound]	–	–	–	–	–	–	–	–	–	Growth Inhibition Values (%) ± SEM ([1]; C33A, 10 μM, MTT): 77.17 ± 1.21%; Growth Inhibition Values (%) ± SEM ([1]; C33A, 30 μM, MTT): 97.50 ± 0.13%; IC50 ([1]; C33A, MTT, read-out: Calculated IC50 Values (μM) [95% CI]): 5.85 µM; Growth Inhibition Values (%) ± SEM ([2]; 10 μM): 60.98 ± 0.92%; Growth Inhibition Values (%) ± SEM ([2]; 30 μM): 88.95 ± 0.53%; IC50 [2]: 4.29 µM; Growth Inhibition Values (%) ± SEM ([3]; NIH/3T3, 10 μM, MTT): 73.88 ± 0.46%; Growth Inhibition Values (%) ± SEM ([3]; NIH/3T3, 30 μM, MTT): 97.10 ± 0.15%; IC50 [3, 7]: 5.5 µM; Growth Inhibition Values (%) ± SEM (MRC-5 (human fibroblast); MRC-5, 30 μM, MTT): 70.65 ± 1.34%; IC50 (MRC-5 (human fibroblast); MRC-5, MTT, read-out: Calculated IC50 Values (μM) [95% CI]): 5.77 µM; Growth Inhibition Values (%) ± SEM ([4]; 10 μM): 32.23 ± 1.16%; Growth Inhibition Values (%) ± SEM ([4]; 30 μM): 93.70 ± 0.82%; IC50 [4]: 12.1 µM
C=C1C(=O)O[C@@H]2C[C@@H](C)C3=CC(=O)[C@](C)(O3)[C@H](OC(=O)CC(C)C)[C@@H](O)[C@@H]12 [Compound 1, 8β-Hydroxy-9α-isovaleroyloxycalyculatolide]	5.89	90 ± 2.54	91.79 ± 0.22	77.93 ± 0.56	92.1 ± 0.73	4.86	20.4 ± 0.62	81.8 ± 1.7	16.8	–
COC[C@@H]1C(=O)O[C@@H]2C[C@@H](C)C3=CC(=O)[C@](C)(O3)[C@H](O)[C@@H](OC(=O)CC(C)C)[C@@H]12 [Compound 2, Lobatolide A]	–	< 20	36.6 ± 2.95	< 20	< 20	–	< 20	21.6 ± 2.42	–	–
C=C1C(=O)O[C@@H]2/C=C(/C)C3=CC(=O)[C@](C)(O3)[C@H](OC(=O)CC(C)C)[C@@H](O)[C@@H]12 [Compound 3, 8β-hydroxy-9α-isovaleroyloxyatripliciolide]	6.82	79.2 ± 3.33	94.46 ± 0.21	60.6 ± 1.58	78.8 ± 1.23	7.81	91.42 ± 0.34	96.6 ± 1.17	4.76	IC50 [3, 9]: 4.12 µM; inhibition at 10 µM [3, 10]: 92.96 ± 0.56%; inhibition at 30 µM [3, 11]: 98.15 ± 0.13%; IC50 (MRC-5 (human fibroblast); [12]): 6.67 µM; inhibition at 10 µM (MRC-5 (human fibroblast); [13]): 88.1 ± 1.22%; inhibition at 30 µM (MRC-5 (human fibroblast); [14]): 97.58 ± 0.1%
C=C1C(=O)O[C@@H]2/C=C(/C)C3=CC(=O)[C@](C)(O3)[C@H](OC(C)=O)[C@@H](OC(=O)CC(C)C)[C@@H]12 [Compound 4, Lobatin C]	2.05	97.27 ± 0.18	97.19 ± 0.41	79.8 ± 1.47	94.62 ± 0.27	2.22	83.9 ± 1.8	90.1 ± 1.03	5.1	–
COC[C@H]1C(=O)O[C@@H]2C[C@@H](C)/C=C\C(=O)[C@](C)(O)[C@H](OC(C)=O)[C@@H](OC(=O)CC(C)C)[C@H]21 [Compound 5, Lobatolide B]	–	50.5 ± 3.49	90 ± 1.4	< 20	65.5 ± 2.52	–	< 20	63.9 ± 3.23	–	–
C=C1C(=O)O[C@@H]2[C@@H](CC3=C4[C@@H](C[C@@H](C)/C=C\C(=O)[C@](C)(O)[C@H](OC(C)=O)[C@H]4OC(=O)CC(C)C)OC3=O)[C@@H](C)C3=CC(=O)[C@](C)(O3)[C@H](O)[C@@H](OC(=O)CC(C)C)[C@@H]12 [Compound 7, Lobatolide D]	6.62	94.66 ± 0.19	95.18 ± 0.31	77.2 ± 1.04	93.5 ± 0.42	6.02	91.87 ± 0.72	96.44 ± 0.1	6	IC50 ([3]; Mus musculus, NIH3T3, read-out: Calculated IC50 Values (μM) [95% CI]): 5.68 µM; inhibition at 10 µM [3, 15]: 90.7 ± 1.2%; inhibition at 30 µM [3, 15]: 98.06 ± 0.19%; IC50 (MRC-5 (human fibroblast); Homo sapiens, MRC5, read-out: Calculated IC50 Values (μM) [95% CI]): 15.4 µM; inhibition at 10 µM (MRC-5 (human fibroblast); [16]): < 20%; inhibition at 30 µM (MRC-5 (human fibroblast); [16]): 97.63 ± 0.27%
C=C1CC[C@@H](O)[C@]2(C)CC[C@@H](C(C)C)[C@H](O)[C@@H]12 [Compound 9, Volenol]	–	< 20	26.7 ± 2.73	< 20	35.7 ± 1.29	–	< 20	37.3 ± 2.65	–	–
CC(C)[C@@H]1CC[C@@]2(C)C(=O)CCC(CO)=C[C@@H]12 [Compound 10, (+)-aphanamol I]	–	< 20	< 20	< 20	< 20	–	< 20	36.5 ± 1.55	–	–
C=C1C(=O)O[C@@H]2/C=C(/C)C3=CC(=O)[C@](C)(O3)[C@H](O)[C@@H](OC(=O)CC(C)C)[C@@H]12 [Lobatin B]	–	–	–	–	–	–	–	–	–	IC50 [5]: 1.1 µM; IC50 [6]: 0.6 µM
C=C1C(=O)O[C@@H]2C[C@@H](C)/C=C\C(=O)[C@@](C)(O)[C@H](OC(C)=O)[C@@H](OC(=O)CC(C)C)[C@@H]12 [Neu B, neurolenin B, reference compound]	–	98.29 ± 0.03	97.91 ± 0.15	88.73 ± 0.36	93.42 ± 0.33	< 1.4	94 ± 0.59	94.81 ± 0.37	< 1.4	IC50 ([1]; read-out: Calculated IC50 Values (μM) [95% CI], C33A, MTT): < 1.4 µM; IC50 [2]: 1.33 µM; IC50 [3, 9]: < 1.4 µM; inhibition at 10 µM [3, 10]: 98.11 ± 0.09%; inhibition at 30 µM [3, 11]: 98.02 ± 0.05%; IC50 [3, 7]: 1.31 µM; IC50 [5]: 1.2 µM; IC50 (MRC-5 (human fibroblast); [12]): 5.18 µM; inhibition at 10 µM (MRC-5 (human fibroblast); [13]): 94.26 ± 0.23%; inhibition at 30 µM (MRC-5 (human fibroblast); [14]): 97.46 ± 0.21%; IC50 [6]: 1.1 µM; IC50 [4]: 1.24 µM
